Measured values taken from patent publication US20230135894A1, “MK2 DEGRADERS AND USES THEREOF” (Kymera Therapeutics, Inc., priority 2021, published 2023).

How the values were obtained:
MK2 [1] = biological target: T1, MK2 (Homo sapiens, UniProt P49137); experiment: MK2 degradation in human THP-1 monocytic cells (MSD, 24 h); type: cell-based; set-up: endogenous in cells; conditions: for Dmax: THP-1, THP-1 cells; for DC50: THP-1 cells, read-out: MK2 MSD THP-1 degradation 24 h GMean External Abs DC50
Method in brief: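 THP-1 cells (200,000/well) treated 24 h at 37 °C with compound dilution series (up to 10 points, 0.1% DMSO). MK2 in RIPA lysates quantified by MSD sandwich immunoassay. DC50 from 4-parameter logistic fit, DMSO-treated cells as high and lysis buffer as low signal.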

MK2 [2] = biological target: T1, MK2; experiment: MK2 degradation in human SW1353 cells (MSD, 24 h); type: cell-based; set-up: endogenous in cells; host or cells: SW-1353 (ATCC HTB-94); key to MK2 MSD SW 1353 24 h Dmax %: —: “-”=not tested or inactive; conditions: for Dmax: read-out: MK2 MSD SW 1353 24 h Dmax %; for DC50: read-out: MK2 MSD SW1353 degradation 24 h GMean External Abs DC50
Method in brief: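 SW1353 chondrosarcoma cells were treated with up to 10-point serial dilutions (0.1% DMSO) for 24 h at 37 °C, then lysed in RIPA buffer. MK2 levels were quantified by MSD sandwich immunoassay; DC50 came from a 4-parameter logistic fit normalised to DMSO-treated cells (high) and lysis buffer (low).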

T1 sequence (P49137 whole entry): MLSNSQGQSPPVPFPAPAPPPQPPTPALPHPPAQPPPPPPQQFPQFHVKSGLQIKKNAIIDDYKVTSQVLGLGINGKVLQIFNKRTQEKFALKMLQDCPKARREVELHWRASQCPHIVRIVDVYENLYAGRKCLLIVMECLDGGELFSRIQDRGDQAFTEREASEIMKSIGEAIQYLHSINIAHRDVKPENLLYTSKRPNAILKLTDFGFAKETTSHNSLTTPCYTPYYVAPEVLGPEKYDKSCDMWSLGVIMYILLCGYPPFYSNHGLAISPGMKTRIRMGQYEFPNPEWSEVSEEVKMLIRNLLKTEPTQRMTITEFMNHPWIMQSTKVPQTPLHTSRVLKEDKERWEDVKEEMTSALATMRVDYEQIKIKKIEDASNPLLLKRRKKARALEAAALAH

C[C@@H]1Cc2oc(-c3ccnc(-c4ccc(N5CCN(CC6CCN(c7cccc8c7n(C)c(=O)n8C7CCC(=O)NC7=O)CC6)CC5)nc4)c3)cc2C(=O)N1 (some centres unmarked) [Compound I-416]
Dmax (MK2 [1]): < 50%
DC50 (MK2 [1]): > 100 nM
Dmax (MK2 [2]): 50 to 75%
DC50 (MK2 [2]): 10 to 100 nM

C[C@@H]1Cc2oc(-c3ccnc(-c4ccc(N5CCN(CC6CN(c7ccc8c(c7)n(C)c(=O)n8C7CCC(=O)NC7=O)C6)CC5)nc4)c3)cc2C(=O)N1 (some centres unmarked) [Compound I-417]
Dmax (MK2 [1]): > 75%
DC50 (MK2 [1]): 1 to 10 nM
Dmax (MK2 [2]): > 75%
DC50 (MK2 [2]): < 1 nM

Cn1c(=O)n(C2CCC(=O)NC2=O)c2cccc(N3CC(N4CCN(c5ccc(-c6cc(-c7cc8c([nH]7)C7(CCCC7)CNC8=O)ccn6)cc5)CC4)C3)c21 (centres unmarked) [Compound I-418]
Dmax (MK2 [1]): > 75%
DC50 (MK2 [1]): 1 to 10 nM
Dmax (MK2 [2]): > 75%
DC50 (MK2 [2]): < 1 nM

Cn1c(=O)n(C2CCC(=O)NC2=O)c2cccc(N3CC(N4CCN(c5ccc(-c6cc(-c7cc8c([nH]7)C7(CC7)CNC8=O)ccn6)cc5)CC4)C3)c21 (centres unmarked) [Compound I-419]
Dmax (MK2 [1]): > 75%
DC50 (MK2 [1]): < 1 nM
Dmax (MK2 [2]): > 75%
DC50 (MK2 [2]): < 1 nM

C[C@@H]1CNc2c(sc3ccc4nc(-c5ccc(N6CCN(CC7CCN(c8cccc(C9CCC(=O)NC9=O)c8)CC7)CC6)nc5)ccc4c23)C(=O)N1 (some centres unmarked) [Compound I-420]
Dmax (MK2 [1]): > 75%
DC50 (MK2 [1]): 1 to 10 nM
Dmax (MK2 [2]): > 75%
DC50 (MK2 [2]): 1 to 10 nM

C[C@@H]1CNc2c(sc3ccc4nc(-c5ccc(N6CCN(CC7CCN(c8ccc(C9CCC(=O)NC9=O)cc8)CC7)CC6)nc5)ccc4c23)C(=O)N1 (some centres unmarked) [Compound I-421]
Dmax (MK2 [1]): > 75%
DC50 (MK2 [1]): 1 to 10 nM
Dmax (MK2 [2]): > 75%
DC50 (MK2 [2]): 1 to 10 nM

Cn1c(=O)n(C2CCC(=O)NC2=O)c2ccc(N3CC(CN4CCN(c5ccc(-c6cc(-c7cc8c([nH]7)C7(CCCC7)CNC8=O)ccn6)c(F)c5)CC4)C3)cc21 (centres unmarked) [Compound I-422]
Dmax (MK2 [1]): > 75%
DC50 (MK2 [1]): < 1 nM
Dmax (MK2 [2]): > 75%
DC50 (MK2 [2]): < 1 nM

Cn1c(=O)n(C2CCC(=O)NC2=O)c2ccc(N3CC(CN4CCN(c5ccc(-c6cc(-c7cc8c([nH]7)CCNC8=O)ccn6)c(F)c5)CC4)C3)cc21 (centres unmarked) [Compound I-423]
Dmax (MK2 [1]): > 75%
DC50 (MK2 [1]): < 1 nM
Dmax (MK2 [2]): > 75%
DC50 (MK2 [2]): < 1 nM

Cn1c(=O)n(C2CCC(=O)NC2=O)c2ccc(N3CCC(CN4CCN(c5ccc(-c6cc(-c7cc8c([nH]7)C7(CCCC7)CNC8=O)ccn6)c(F)c5)CC4)CC3)cc21 (centres unmarked) [Compound I-424]
Dmax (MK2 [1]): > 75%
DC50 (MK2 [1]): 1 to 10 nM
Dmax (MK2 [2]): > 75%
DC50 (MK2 [2]): < 1 nM

Cn1c(=O)n(C2CCC(=O)NC2=O)c2ccc(N3CC(CN4CCN(c5ccc(-c6cc(-c7cc8c([nH]7)C7(CC7)CNC8=O)ccn6)c(F)c5)CC4)C3)cc21 (centres unmarked) [Compound I-425]
Dmax (MK2 [1]): > 75%
DC50 (MK2 [1]): < 1 nM
Dmax (MK2 [2]): > 75%
DC50 (MK2 [2]): < 1 nM

Cn1c(=O)n(C2CCC(=O)NC2=O)c2ccc(N3CC(CN4CCN(c5ccc(-c6nccc(-c7cc8c([nH]7)C7(CC7)CNC8=O)n6)cc5)CC4)C3)cc21 (centres unmarked) [Compound I-426]
Dmax (MK2 [1]): > 75%
DC50 (MK2 [1]): < 1 nM
Dmax (MK2 [2]): > 75%
DC50 (MK2 [2]): < 1 nM

Cn1c(=O)n(C2CCC(=O)NC2=O)c2ccc(N3CCC(CN4CCN(c5ccc(-c6nccc(-c7cc8c([nH]7)CCNC8=O)n6)cc5)CC4)CC3)cc21 (centres unmarked) [Compound I-427]
Dmax (MK2 [1]): > 75%
DC50 (MK2 [1]): < 1 nM
Dmax (MK2 [2]): > 75%
DC50 (MK2 [2]): < 1 nM

Cn1c(=O)n(C2CCC(=O)NC2=O)c2ccc(N3CCC(CN4CCN(c5ccc(-c6nccc(-c7cc8c([nH]7)C7(CC7)CNC8=O)n6)cc5)CC4)CC3)cc21 (centres unmarked) [Compound I-428]
Dmax (MK2 [1]): > 75%
DC50 (MK2 [1]): 1 to 10 nM
Dmax (MK2 [2]): > 75%
DC50 (MK2 [2]): < 1 nM

Cn1c(=O)n(C2CCC(=O)NC2=O)c2ccc(N3CCC(CN4CCN(c5ccc6oc(-c7cc(Nc8ccnc(N)n8)cc8cn[nH]c78)cc6c5)CC4)CC3)cc21 (centres unmarked) [Compound I-429]
Dmax (MK2 [1]): < 50%
DC50 (MK2 [1]): > 100 nM
Dmax (MK2 [2]): < 50%
DC50 (MK2 [2]): > 100 nM

COc1ccc2c(c1CCN1CCN(c3ccc(-c4cc(-c5cc6c([nH]5)C5(CC5)CNC6=O)ccn4)cc3)CC1)n(C)c(=O)n2C1CCC(=O)NC1=O (centres unmarked) [Compound I-430]
Dmax (MK2 [1]): > 75%
DC50 (MK2 [1]): < 1 nM
Dmax (MK2 [2]): > 75%
DC50 (MK2 [2]): < 1 nM

Cn1c(=O)n(C2CCC(=O)NC2=O)c2cccc(CCN3CCN(c4ccc(-c5nccc(-c6cc7c([nH]6)C6(CC6)CNC7=O)c5F)cc4)CC3)c21 (centres unmarked) [Compound I-431]
Dmax (MK2 [1]): < 50%
DC50 (MK2 [1]): > 100 nM
Dmax (MK2 [2]): 50 to 75%
DC50 (MK2 [2]): 10 to 100 nM

COc1cc(-c2ccc3c(ccc4sc5c(c43)NC[C@@H](C)NC5=O)n2)c(C)cc1N1CCN(CC2CCN(c3ccc4c(c3)n(C)c(=O)n4C3CCC(=O)NC3=O)CC2)CC1 (some centres unmarked) [Compound I-432]
Dmax (MK2 [1]): 50 to 75%
DC50 (MK2 [1]): 10 to 100 nM
Dmax (MK2 [2]): > 75%
DC50 (MK2 [2]): < 1 nM

C[C@@H]1CNc2c(sc3ccc4nc(N5CC6CCC(C5)N6CC5CCN(c6ccc7c(c6)n(C)c(=O)n7C6CCC(=O)NC6=O)CC5)ccc4c23)C(=O)N1 (some centres unmarked) [Compound I-433]
Dmax (MK2 [1]): < 50%
DC50 (MK2 [1]): > 100 nM
Dmax (MK2 [2]): < 50%
DC50 (MK2 [2]): > 100 nM

C[C@@H]1CNc2c(sc3ccc4nc(N5C6CCC5CN(CC5CCN(c7ccc8c(c7)n(C)c(=O)n8C7CCC(=O)NC7=O)CC5)C6)ccc4c23)C(=O)N1 (some centres unmarked) [Compound I-434]
Dmax (MK2 [1]): < 50%
DC50 (MK2 [1]): > 100 nM
Dmax (MK2 [2]): < 50%
DC50 (MK2 [2]): > 100 nM

C[C@@H]1CNc2c(sc3ccc4nc(N5C6CCC5CN(CC5CCN(c7cccc8c7n(C)c(=O)n8C7CCC(=O)NC7=O)CC5)C6)ccc4c23)C(=O)N1 (some centres unmarked) [Compound I-435]
Dmax (MK2 [1]): < 50%
DC50 (MK2 [1]): > 100 nM
MK2 MSD SW 1353 24 h Dmax % (MK2 [2]): —
DC50 (MK2 [2]): > 100 nM

C[C@@H]1CNc2c(sc3ccc4nc(N5CC6CCC(C5)N6CC5CCN(c6cccc7c6n(C)c(=O)n7C6CCC(=O)NC6=O)CC5)ccc4c23)C(=O)N1 (some centres unmarked) [Compound I-436]
Dmax (MK2 [1]): < 50%
DC50 (MK2 [1]): > 100 nM
MK2 MSD SW 1353 24 h Dmax % (MK2 [2]): —
DC50 (MK2 [2]): > 100 nM

C[C@@H]1CNc2c(sc3ccc4nc(-c5ccc(N6CCN(CCCCOc7ccc(N8CCC(=O)NC8=O)cc7)CC6)nc5)ccc4c23)C(=O)N1 [Compound I-437]
Dmax (MK2 [1]): > 75%
DC50 (MK2 [1]): 1 to 10 nM
Dmax (MK2 [2]): > 75%
DC50 (MK2 [2]): 1 to 10 nM

C[C@@H]1CNc2c(sc3ccc4nc(-c5ccc(N6CCN(CC7CCN(c8ccc(N9CCC(=O)NC9=O)cc8)CC7)CC6)nc5)ccc4c23)C(=O)N1 [Compound I-438]
Dmax (MK2 [1]): > 75%
DC50 (MK2 [1]): 1 to 10 nM
Dmax (MK2 [2]): > 75%
DC50 (MK2 [2]): 1 to 10 nM

C[C@@H]1CNc2c(sc3ccc4nc(N5CCC(CN6CC7(C6)CN(c6ccc8c(c6)n(C)c(=O)n8C6CCC(=O)NC6=O)C7)CC5)ccc4c23)C(=O)N1 (some centres unmarked) [Compound I-439]
Dmax (MK2 [1]): > 75%
DC50 (MK2 [1]): 1 to 10 nM
Dmax (MK2 [2]): > 75%
DC50 (MK2 [2]): < 1 nM

C[C@@H]1CNc2c(sc3ccc4nc(N5CCC(N6CC7(CCN(c8ccc9c(c8)n(C)c(=O)n9C8CCC(=O)NC8=O)CC7)C6)CC5)ccc4c23)C(=O)N1 (some centres unmarked) [Compound I-440]
Dmax (MK2 [1]): > 75%
DC50 (MK2 [1]): < 1 nM
Dmax (MK2 [2]): > 75%
DC50 (MK2 [2]): < 1 nM

C[C@@H]1CNc2c(sc3ccc4nc(N5CCC6(CC5)CN(C5CCN(c7cccc8c7n(C)c(=O)n8C7CCC(=O)NC7=O)CC5)C6)ccc4c23)C(=O)N1 (some centres unmarked) [Compound I-441]
Dmax (MK2 [1]): > 75%
DC50 (MK2 [1]): 1 to 10 nM
Dmax (MK2 [2]): > 75%
DC50 (MK2 [2]): < 1 nM

C[C@@H]1CNc2c(sc3ccc4nc(N5CCCN(CC6CCN(c7cccc8c7n(C)c(=O)n8C7CCC(=O)NC7=O)CC6)CC5)ccc4c23)C(=O)N1 (some centres unmarked) [Compound I-442]
Dmax (MK2 [1]): < 50%
DC50 (MK2 [1]): > 100 nM
Dmax (MK2 [2]): < 50%
DC50 (MK2 [2]): > 100 nM

C[C@@H]1CNc2c(sc3ccc4nc(N5CCN(C6CC7(CCN(c8cccc9c8n(C)c(=O)n9C8CCC(=O)NC8=O)CC7)C6)CC5)ccc4c23)C(=O)N1 (some centres unmarked) [Compound I-443]
Dmax (MK2 [1]): > 75%
DC50 (MK2 [1]): < 1 nM
Dmax (MK2 [2]): > 75%
DC50 (MK2 [2]): < 1 nM

C[C@@H]1CNc2c(sc3ccc4nc(N5CCCN(CCC6CCN(c7ccc8c(c7)n(C)c(=O)n8C7CCC(=O)NC7=O)CC6)CC5)ccc4c23)C(=O)N1 (some centres unmarked) [Compound I-444]
Dmax (MK2 [1]): 50 to 75%
DC50 (MK2 [1]): 1 to 10 nM
Dmax (MK2 [2]): > 75%
DC50 (MK2 [2]): 1 to 10 nM

C[C@@H]1CNc2c(sc3ccc4nc(N5CCN(CCC6CCN(c7ccc8c(c7)n(C)c(=O)n8C7CCC(=O)NC7=O)CC6)CC5)ccc4c23)C(=O)N1 (some centres unmarked) [Compound I-445]
Dmax (MK2 [1]): > 75%
DC50 (MK2 [1]): < 1 nM
Dmax (MK2 [2]): > 75%
DC50 (MK2 [2]): < 1 nM

C[C@@H]1CNc2c(sc3ccc4nc(N5CCCN(CC6CCN(c7ccc8c(c7)n(C)c(=O)n8C7CCC(=O)NC7=O)CC6)CC5)ccc4c23)C(=O)N1 (some centres unmarked) [Compound I-446]
Dmax (MK2 [1]): < 50%
DC50 (MK2 [1]): > 100 nM
Dmax (MK2 [2]): < 50%
DC50 (MK2 [2]): > 100 nM

CCc1cc(-c2cc(-c3cc4c([nH]3)CCNC4=O)ccn2)cc(CC)c1N1CCN(CC2CCN(c3ccc4c(c3)n(C)c(=O)n4C3CCC(=O)NC3=O)CC2)CC1 (centres unmarked) [Compound I-447]
Dmax (MK2 [1]): < 50%
DC50 (MK2 [1]): > 100 nM
Dmax (MK2 [2]): 50 to 75%
DC50 (MK2 [2]): 10 to 100 nM
